The conditions of series [1]: added to existing treatment; within 3 months of treatment; cited from earlier work.
Series [2] has as its target T1, human CYP11B2 enzyme (Homo sapiens, UniProt P19099).
T1 construct: the ORF of human CYP11B1 or CYP11B2 were transfected into G402 cells; expressed in transfected cells
T1 sequence (P19099 25-503): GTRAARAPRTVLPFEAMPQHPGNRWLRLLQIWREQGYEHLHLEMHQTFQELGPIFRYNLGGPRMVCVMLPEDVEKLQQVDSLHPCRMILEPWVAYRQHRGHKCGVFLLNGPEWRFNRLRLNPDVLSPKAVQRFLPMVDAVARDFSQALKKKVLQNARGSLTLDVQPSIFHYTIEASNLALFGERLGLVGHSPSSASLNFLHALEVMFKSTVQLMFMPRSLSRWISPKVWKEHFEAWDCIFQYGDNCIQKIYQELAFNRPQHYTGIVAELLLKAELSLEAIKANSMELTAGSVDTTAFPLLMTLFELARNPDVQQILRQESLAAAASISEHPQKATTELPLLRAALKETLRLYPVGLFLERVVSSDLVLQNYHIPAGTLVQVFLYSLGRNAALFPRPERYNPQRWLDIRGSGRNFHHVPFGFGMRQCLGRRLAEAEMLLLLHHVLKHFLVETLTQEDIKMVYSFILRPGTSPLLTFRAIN
Kind of series: Enzyme inhibition activity assay in G402 cells stably expressing human CYP11B2 (aldosterone production from 11-DOC, LC/MS). It counts as cell-based. The note with it: 1 µM 11-DOC, 16 hours, aldosterone detected. The gist of the method:
(§1)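 G402 cells stably expressing human CYP11B2 or CYP11B1, preincubated 1 h with inhibitor in DMEM/F12 plus 2.5% charcoal-stripped FCS, then 16 h with 1 µM 11-DOC or 1 µM 11-DC. Aldosterone or cortisol quantified by LC/MS; IC50 from four-parameter logistic fit versus uninhibited control.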

Series [3] has as its target T2, human CYP11B1 enzyme (Homo sapiens, UniProt P15538).
T2 construct: the ORF of human CYP11B1 or CYP11B2 were transfected into G402 cells; expressed in transfected cells
T2 sequence (P15538 25-503): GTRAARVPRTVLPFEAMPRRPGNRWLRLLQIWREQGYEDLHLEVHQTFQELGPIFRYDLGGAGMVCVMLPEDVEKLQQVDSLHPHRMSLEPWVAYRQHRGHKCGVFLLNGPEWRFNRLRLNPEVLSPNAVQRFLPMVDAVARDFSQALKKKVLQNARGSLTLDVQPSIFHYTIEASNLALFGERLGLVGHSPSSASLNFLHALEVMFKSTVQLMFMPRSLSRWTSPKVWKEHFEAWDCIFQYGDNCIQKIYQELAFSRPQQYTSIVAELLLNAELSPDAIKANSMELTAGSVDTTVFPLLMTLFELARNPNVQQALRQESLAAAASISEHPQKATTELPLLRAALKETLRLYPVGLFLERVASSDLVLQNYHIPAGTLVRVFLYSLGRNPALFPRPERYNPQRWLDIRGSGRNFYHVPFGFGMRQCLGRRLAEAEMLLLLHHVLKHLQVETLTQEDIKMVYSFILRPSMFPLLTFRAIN
Briefly: Enzyme inhibition activity assay in G402 cells stably expressing human CYP11B1 (cortisol production from 11-DC, LC/MS). In kind it is cell-based. The conditions noted are these: 1 µM 11-DC, 16 hours, cortisol detected. The procedure, abridged: as §1

Series [4] can be described thus: Pharmacokinetic determination in monkeys after gavage administration (P.O.). The note with it: cynomolgus monkey, po, 1 mg/kg, plasma. In kind it is in vivo, Cynomolgus monkeys (Macaca fascicularis). As to the method: Cynomolgus monkeys (Macaca fascicularis) were used as test animals to study the pharmacokinetic behavior of the compounds of the present disclosure in plasma following gavage administration (P.O.). Plasma samples were collected at specific time points, compound concentrations in plasma were detected by LC-MS/MS, and pharmacokinetic parameters were calculated to reflect the pharmacokinetics in cynomolgus monkeys.
Cynomolgus monkeys, male, Ankaiyibo (Zhanjiang) Biotechnology Co., Ltd.
After administration to cynomolgus monkeys, venous blood samples of 0.3 mL were collected at 0.25, 0.5, 1, 2, 4, 8, and 24 hours and placed in EDTA-K2 test tubes. Plasma was separated by centrifugation at 4 °C, 4000 g for 5 minutes and stored at -80 °C.
• 1) 50 µL of plasma sample was precipitated by adding 200 µL of acetonitrile, vortex mixed, and centrifuged for 15 minutes. • 2) The processed supernatant was diluted with water and analyzed by LC/MS/MS to determine the concentration of the test compound.
Pharmacokinetic parameters were calculated using WinNonlin 8.3. Cmax represents the maximum plasma concentration, T1/2 represents the terminal elimination half-life, MRTInf represents the mean residence time, and AUC represents the area under the plasma concentration-time curve. Table 6 Pharmacokinetic Parameters of the Compounds of the Present Disclosure in Monkeys

The nature of series [5]: Pharmacokinetic determination in mice after gavage administration (P.O.). In kind it is in vivo. The note with it: male, CD-1, mouse, po, 10 mg/kg, plasma. The method, then:
Mice and rats were used as test animals to study the pharmacokinetic behavior of the compounds of the present disclosure in plasma following gavage administration (P.O.). Plasma samples were collected at specific time points, compound concentrations in plasma were detected by LC-MS/MS, and pharmacokinetic parameters were calculated to evaluate the pharmacokinetics.
• Mice, CD-1, male, Zhejiang Vital River Laboratory Animal Technology Co., Ltd. • Rats, Sprague-Dawley, male, Zhejiang Vital River Laboratory Animal Technology Co., Ltd., Shanghai Jihui Experimental Animal Breeding Co., Ltd.
After administration to mice and rats, venous blood samples of 0.03 mL and 0.2 mL, respectively, were collected at 0.0833 (IV), 0.25, 0.5, 1, 2, 4, 8, and 24 hours and placed in EDTA-K2 test tubes. Plasma was separated by centrifugation at 4 °C, 4000 g for 5 minutes and stored at -80 °C.
• 1) 10 µL of plasma sample was precipitated by adding 200 µL of acetonitrile, vortex mixed, and centrifuged for 15 minutes. • 2) The processed supernatant was diluted with water and analyzed by LC/MS/MS to determine the concentration of the test compound.
Pharmacokinetic parameters were calculated using WinNonlin 8.3. The pharmacokinetic parameters for mice P.O. are shown in Table 4, and for rats P.O. in Table 5. Cmax represents the maximum plasma concentration, T1/2 represents the terminal elimination half-life, MRTInf represents the mean residence time, and AUC represents the area under the plasma concentration-time curve. Table 4 Pharmacokinetic Parameters of the Compounds of the Present Disclosure in Mice

A short description of series [6]: in vivo. The note with it: male, Sprague-Dawley, rat, plasma, po, 10 mg/kg.
Description: Pharmacokinetic parameters were calculated using WinNonlin 8.3. […] Cmax represents the maximum plasma concentration, T1/2 represents the terminal elimination half-life, MRTInf represents the mean residence time, and AUC represents the area under the plasma concentration-time curve.

In the case of `CC(=O)S[C@@H]1CC2=CC(=O)CC[C@]2(C)[C@H]2CC[C@@]3(C)[C@@H](CC[C@@]34CCC(=O)O4)[C@H]12` [spironolactone], the “patients with resistant hypertension achieving effective control of blood pressure (systolic blood pressure <135 mm Hg)” value in series [1] is 60%.

As usually defined, the IC50 is the concentration that inhibits the measured activity by half. Read a high IC50 as weaker potency in that assay. One may read the Cmax as the highest concentration seen after dosing. The MRT inf is a mean duration of stay, worked out from the concentration-time curve. In general, half-life refers to how long it takes for the measured level to halve. A lower half-life goes with rapid decline. In series [2], `CCC(=O)N[C@@H]1CCOc2c(-c3ccc4c(c3)cc(C#N)n4C)cncc21` [Compound A10-P2] registered an IC50 of 1.8 nM. In series [3], the IC50 stood at 316 nM. In series [4] (in vivo), the concentration peaked (Cmax) at 3.28 µM, the MRT inf was determined as 9.14 h and the half-life is 8.48 h. In addition, the AUC(0-t) at 24 h in series [4] (in vivo, read-out: AUC0-24) is 29.1 µM·h.

For the molecule `CCC(=O)N[C@@H]1CCCc2c(-c3ccc4c(c3)CCC(=O)N4C)cncc21` [Control Compound, reference compound], the Cmax in series [5] turned out to be 12.2 µM; in series [4] (male), 0.834 µM; in series [6], 11.4 µM. Also, the MRT inf in series [5] worked out at 3.59 h; in series [6], 6.41 h. Also, the results for the half-life in series [5] and in series [6] were 1.86 h and 4.31 h, respectively. The AUC(0-t) in series [5] (read-out: AUC0-24) was 57.3 µM·h; in series [4] (male, read-out: AUC0-24), 6 µM·h; in series [6], 109 µM·h.

These data come from patent EP4806899A1, “FUSED RING DERIVATIVE, PREPARATION METHOD THEREFOR AND USE THEREOF IN MEDICINE” (Shanghai Qilu Pharmaceutical Research and Development …, priority 2023, dated 2025).
